Legend:
enzyme 5a-reductase = assay: 5a-reductase inhibition, assay of R. J. Moore and J. D. Wilson; format: biochemical; details: compared with progesterone
From the text: (§1) The compounds of the present invention represent an important advance over progestrone and derivatives thereof since they are irreversible inhibitors of the enzyme 5a-reductase. Employing the assay of R. J. Moore and J. D. Wilson [Methods in Enzymology, Vol. XXXVI, Academic Press, N.Y., Ed. W. O'Malley and G. Hardman, p.

5α-Reductase = assay: Preincubation of enzyme with inhibitor and NADPH, tenfold dilution, then assay for 5a-reductase activity; format: biochemical; details: for Picomol Testosterone reduced/mg protein in 45 min + SEM: testosterone 5x10^-8, NADPH 5x10^-4; for manner of combination with / inactivation of the enzyme: in the presence of the co-factor NADPH
From the text: as §1

5a-reductase = assay: Time course of inactivation of 5a-reductase after incubation with NADPH and inhibitor (saturation kinetics); format: biochemical; details: Fig. 1
Protocol: The time course of inactivation of 5a-reductase following incubation of the enzyme with NADPH and 17a-acetoxy-6-methyleneprogesterone is shown in Fig. 1.
When these rate constants are plotted (as the t 1/2's) against the reciprocal of the inhibitor concentrations, a straight line i obtained with a positive intercept on the y-axis, indicating a saturation phenomenon (Fig. 2). […] The rate constant for this step (kcat) is 4.8 x 10-^3 s-'.

[1] = topical administration of a 0.5% solution in aqueous ethanol; cited from earlier work
[2] = tested on: cell-culture preparations of human prostate; details: thereby inhibiting growth of the tissue; cited from earlier work

Structure (SMILES) | potency as inhibitors of the enzyme (enzyme 5a-reductase) | Picomol Testosterone reduced/mg protein in 45 min + SEM (5α-Reductase; A: preincubation 15 min with inhibitor 5x10^-7 M and NADPH 6x10^-5, assay: inhibitor 5x10^-8 M, n = 6) | Picomol Testosterone reduced/mg protein in 45 min + SEM (5α-Reductase; B: preincubation 15 min without inhibitor, NADPH 6x10^-5, assay: inhibitor 5x10^-8 M, n = 6) | Picomol Testosterone reduced/mg protein in 45 min + SEM (5α-Reductase; C: preincubation 15 min without inhibitor and without NADPH, assay: inhibitor 5x10^-8 M, n = 6) | Picomol Testosterone reduced/mg protein in 45 min + SEM (5α-Reductase; D: preincubation 15 min with inhibitor 5x10^-7 M, no NADPH, assay: inhibitor 5x1-^-8 M, n = 6) | Picomol Testosterone reduced/mg protein in 45 min + SEM (5α-Reductase; F: no preincubation, assay: inhibitor 5x10^-8 M, n = 4) | manner of combination with / inactivation of the enzyme (5α-Reductase) | enzyme activity lost (5α-Reductase; preincubation with inhibitor and NADPH, diluting tenfold, assaying for 5a-reductase activity) [%] | time course of inactivation of the enzyme (5a-reductase) | enzyme inactivation on preincubation (5α-Reductase; similar preincubation of the enzyme (with NADPH)) | males with acne with an important decrease in sebum secretion [1] | inhibition of the enzyme [2]
C=C1C[C@@H]2[C@H](CC[C@@]3(C)[C@H]2CC[C@]3(OC(C)=O)C(C)=O)[C@@]2(C)CCC(=O)C=C12 [17a-acetoxy-6-methyleneprogesterone, 17-Acetoxy-6-methylene-4-pregnen-3,20-dione] | equipotent with progesterone | 0.71±0.018n = 6 Picomol Testosterone reduced/mg protein in 45 min | 3.0 ±0.26n = 6 Picomol Testosterone reduced/mg protein in 45 min | 2.83±0.09n = 6 Picomol Testosterone reduced/mg protein in 45 min | 2.63±0.18n = 6 Picomol Testosterone reduced/mg protein in 45 min | 3.14±0.20n = 4 Picomol Testosterone reduced/mg protein in 45 min | irreversible | 75 | pseudo first-order kinetics |  |  | 
CC(=O)[C@H]1CC[C@H]2[C@@H]3CCC4=CC(=O)CC[C@]4(C)[C@H]3CC[C@]12C [Progesterone, reference compound] |  |  |  |  |  |  | competitive and reversible |  |  | does not result in enzyme inactivation | 45/53 | strongly inhibits
C=C1C[C@H]2[C@@H]3CC[C@H](C(C)=O)[C@@]3(C)CC[C@@H]2[C@@]2(C)CCC(=O)C=C12 [6-methyleneprogesterone] | equipotent with progesterone |  |  |  |  |  |  |  |  |  |  | 

Source: patent publication EP0155934B1, “Pharmaceutical compositions for treating androgen-related disorders in humans” (Duke University, priority 1983, dated 1985)
